Key:
Assay in all cases: relative viability (nuclei count vs DMSO), 5 days (fraction); higher = more cells survive
[1] = tested on: NCI-H1755
Outline: (§1)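 Five library-drug doses in √10 steps were combined with a fixed anchor-drug dose, or a single drug was given alone, by pin tool to lung cancer cell lines in 1536-well plates the day after seeding. Nuclei were stained and counted after 5 days. Relative viability is the nuclei count in treated wells over that in vehicle wells, taken as the median of duplicate plates.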

[2] = tested on: NCI-H1915
Outline: as §1

[3] = tested on: NCI-H1975
Outline: as §1

[4] = tested on: NCI-H1993
Outline: as §1

[5] = tested on: NCI-H2023
Outline: as §1

[6] = tested on: NCI-H2085
Outline: as §1

[7] = tested on: NCI-H2126
Outline: as §1

[8] = tested on: NCI-H3122
Outline: as §1

[9] = tested on: NCI-H322M
Outline: as §1

[10] = tested on: NCI-H358
Outline: as §1

[11] = tested on: NCI-H441
Outline: as §1

[12] = tested on: UMC-11
Outline: as §1

NC(=O)Nc1cc(-c2cccc(F)c2)sc1C(=O)N[C@H]1CCCNC1 [AZD7762] + C[C@@H](Oc1cc(-c2cnn(C3CCNCC3)c2)cnc1N)c1c(Cl)ccc(F)c1Cl [Crizotinib] (partner 1 µM)
relative viability ([1]; first compound 0.1 µM): 0.929
relative viability ([1]; first compound 0.3162 µM): 0.853
relative viability ([1]; first compound 1 µM): 0.508
relative viability ([2]; first compound 0.01 µM): 0.93
relative viability ([2]; first compound 0.03162 µM): 0.919
relative viability ([2]; first compound 0.1 µM): 0.891
relative viability ([2]; first compound 0.3162 µM): 0.944
relative viability ([2]; first compound 1 µM): 0.823
relative viability ([3]; first compound 0.01 µM): 1.06
relative viability ([3]; first compound 0.03162 µM): 0.937
relative viability ([3]; first compound 0.1 µM): 0.837
relative viability ([3]; first compound 0.3162 µM): 0.903
relative viability ([3]; first compound 1 µM): 0.638
relative viability ([4]; first compound 0.01 µM): 0.952
relative viability ([4]; first compound 0.03162 µM): 0.957
relative viability ([4]; first compound 0.1 µM): 0.729
relative viability ([4]; first compound 0.3162 µM): 0.873
relative viability ([4]; first compound 1 µM): 0.808
relative viability ([5]; first compound 0.01 µM): 0.573
relative viability ([5]; first compound 0.03162 µM): 0.612
relative viability ([5]; first compound 0.1 µM): 0.417
relative viability ([5]; first compound 0.3162 µM): 0.209
relative viability ([5]; first compound 1 µM): 0.118
relative viability ([6]; first compound 0.01 µM): 1.01
relative viability ([6]; first compound 0.03162 µM): 0.889
relative viability ([6]; first compound 0.1 µM): 0.839
relative viability ([6]; first compound 0.3162 µM): 0.853
relative viability ([6]; first compound 1 µM): 0.644
relative viability ([7]; first compound 0.01 µM): 1.01
relative viability ([7]; first compound 0.03162 µM): 1.01
relative viability ([7]; first compound 0.1 µM): 1.12
relative viability ([7]; first compound 0.3162 µM): 1.04
relative viability ([7]; first compound 1 µM): 1.05
relative viability ([8]; first compound 0.01 µM): 0.266
relative viability ([8]; first compound 0.03162 µM): 0.296
relative viability ([8]; first compound 0.1 µM): 0.329
relative viability ([8]; first compound 0.3162 µM): 0.258
relative viability ([8]; first compound 1 µM): 0.283
relative viability ([9]; first compound 0.01 µM): 1.04
relative viability ([9]; first compound 0.03162 µM): 0.845
relative viability ([9]; first compound 0.1 µM): 0.883
relative viability ([9]; first compound 0.3162 µM): 0.962
relative viability ([9]; first compound 1 µM): 0.417
relative viability ([10]; first compound 0.01 µM): 0.743
relative viability ([10]; first compound 0.03162 µM): 0.695
relative viability ([10]; first compound 0.1 µM): 0.581
relative viability ([10]; first compound 0.3162 µM): 0.521
relative viability ([10]; first compound 1 µM): 0.202
relative viability ([11]; first compound 0.01 µM): 1.15
relative viability ([11]; first compound 0.03162 µM): 0.745
relative viability ([11]; first compound 0.1 µM): 1.15
relative viability ([11]; first compound 0.3162 µM): 0.995
relative viability ([11]; first compound 1 µM): 0.89
relative viability ([12]; first compound 0.01 µM): 0.713
relative viability ([12]; first compound 0.03162 µM): 0.421
relative viability ([12]; first compound 0.1 µM): 0.516
relative viability ([12]; first compound 0.3162 µM): 0.508
relative viability ([12]; first compound 1 µM): 0.142
